Data on three molecules can be found in patent US10005733B2, “N-(4-hydroxy-4-methyl-cyclohexyl)-4-phenyl-benzenesulfonamide and N-(4-hydroxy-4-methyl-cyclohexyl)-4-(2-pyridyl)-benzenesulfonamide compounds and their therapeutic use” (PIMCO 2664 LIMITED, priority 2014, dated 2018).

In test [1] the test system is DoHH2 B-cell lymphoma cells. The test can be described thus: DoHH2 B Cell Lymphoma Proliferation Assay. In kind it is cell-based. Conditions: Homo sapiens, DOHH-2; 72 hour incubation, flow cytometry with counting beads and eFluor 450. How it is done:
In vitro potency of test compounds was determined by incubation with DoHH2 B-cell lymphoma cells and subsequent determination of cell number using flow cytometry.
Flow cytometry is a laser-based, biophysical technology employed in cell counting, cell sorting, and biomarker detection, by suspending cells in a stream of fluid and passing them by an electronic detection apparatus. It allows simultaneous multi-parametric analysis of the physical and chemical characteristics of up to thousands of particles per second. To quantify cell numbers, counting beads are used as an internal standard. Counting beads are a calibrated suspension of microbeads which are added to a known volume of sample so the sample volume per bead is known. This allows the absolute determination of cell number in a sample. Cell proliferation is measured using a dye known as Cell Proliferation Dye (eFluor® 450). eFluor® 450 is an organic dye which can be conjugated to cell-specific markers. […]
The average results for each test compound were expressed as a percent (%) of the average control value reflecting cell viability. The average values across the concentrations tested were then plotted and an IC50 was calculated by fitting the data to a 4-parameter IC50 equation using KaleidaGraph software (Synergy Software, Reading, Pa. USA).

Test [2] deals with human primary osteoclasts. The test can be described thus: Human Primary Osteoclastogenesis (TRAP-positive multinucleated cells from CD14+ monocytes). In kind it is cell-based. The settings on record: compound added on Day 4 of monocyte differentiation; for pIC50: Homo sapiens, Osteoclast, 96 h. How it is done:
In vitro potency of test compounds was determined by incubating them with human primary monocytes and assessing effects on the formation of mature osteoclasts.
The activity of the compounds in reducing the formation of human primary osteoclasts (osteoclastogenesis) was tested using monocytes derived from human whole blood. Monocytes, which are positive for the cell surface marker CD14, are part of the innate immune system found in the circulation. Peripheral blood monocytes differentiate to form several cell types, including osteoclasts. Human primary osteoclasts were […] macrophage colony-stimulating factor (M-CSF) and RANKL+10% foetal calf serum for approximately 6 days, with the exact duration depending on the individual donor of the cells.
When monocytes are cultured under the conditions described above, they form large, multinucleated cells (osteoclasts), which stain positively for tartrate-resistant acid phosphatase (TRAP). TRAP staining was performed between Days 5-6 of culture depending on the individual donor. Osteoclasts are identified as cells which stain positive for TRAP and contain more than 3 nuclei. Compounds which reduce the number of TRAP-positive cells reduce the formation of osteoclasts. The bisphosphonate compound, alendronate, which is used in the treatment of osteoporosis, is used as a positive control for reducing osteoclastogenesis in this assay.
Effects on osteoclast formation were assessed by staining for TRAP and counting cells containing more than three nuclei in each well under a microscope. This allows the absolute determination of cell number in each treated well.
PBMCs (peripheral blood mononuclear cells) were collected from healthy donors and isolated by centrifugation on a layer of Ficoll Paque (GE Healthcare, UK). Monocytes were then sorted from the PBMCs using an autoMACS Pro Separator (MiltenyiBiotec), which sorts cells depending on the markers present on their cell surface. The resulting CD14+ monocytes were resuspended in αMEM supplemented with 10% FCS, 25 ng/mL M-CSF and 100 ng/ml RANKL and added to a 48-well plate, which was then incubated for up to 6 days at 37° C./5% CO2. […] The medium was replenished every 2 days.
At the end of the culture period, the medium was removed from the cells and the cells were fixed at room temperature and then washed with phosphate-buffered saline. TRAP staining solution was then added and the cells incubated at 37° C. until a red colour had developed, after which the reaction was stopped by rinsing with water. The stained cells were air-dried and then photographed using a conventional microscope and the TRAP-positive multinucleated osteoclasts counted by two independent observers.
The average results (n=6) for each concentration of test compound were averaged between the two observers and then expressed as a fold change versus the average control value. The data were then plotted graphically using software from Grafit (Erithacus Software).

pIC50: −log10 of the molar value.

As to `C[C@]1(O)CC[C@@H](NS(=O)(=O)c2ccc(-c3ccc(F)cc3F)cc2)CC1` [ABD899, reference compound], the pIC50 in test [1] is 6.87.

Turning to `C[C@]1(O)CC[C@H](NS(=O)(=O)c2ccc(-c3ccc(F)cc3F)cc2)CC1` [ABD900], in test [2], the “% reduction at 1 μM” value stood at 90% and the pIC50 was 6.43.

On to `C[C@]1(O)CC[C@@H](NS(=O)(=O)c2ccc(-c3ccc(C#N)cc3)c(F)c2)CC1` [HMC-C-07-B, 4′-Cyano-2-fluoro-N-((1s,4s)-4-hydroxy-4-methylcyclohexyl)-[1,1′-biphenyl]-4-sulfonamide], for which the “% reduction at 1 μM” value in test [2] is recorded as 90%. Besides, the pIC50 is 6.92 in test [2] and 6.73 in test [1].
